Data taken from patent US6358885B1, “Substituted phenylheterocyclic herbicides” (Mississippi State University, priority 1992, dated 2002).

Experiments:
Experiment in all cases: Test B preemergence/postemergence greenhouse plant response rating 0 to 10
wild buckwheat = type: in vivo, Polygonum convolvulus; settings: for Plant response rating, Wild buckwheat: 0 to 10 scale
Procedure, shortened: (§1)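 Test chemicals were sprayed onto freshly planted seed and, concurrently, onto young plants between the one and four leaf stage. After a twelve- to sixteen-day greenhouse period, each species was visually compared with untreated controls.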

morningglory = type: in vivo, Ipomoea hederacea; settings: for Plant response rating, Morningglory: 0 to 10 scale
Procedure, shortened: as §1

sugar beet = type: in vivo, Beta vulgaris; settings: for Plant response rating, Sugar beet: 0 to 10 scale
Procedure, shortened: as §1

cheatgrass = type: in vivo, Bromus secalinus; settings: for Plant response rating, Cheatgrass: 0 to 10 scale
Procedure, shortened: as §1

chickweed = type: in vivo, Stellaria media; settings: for Plant response rating, Chickweed: 0 to 10 scale
Procedure, shortened: as §1

velvetleaf = type: in vivo, Abutilon theophrasti; settings: for Plant response rating, Velvetleaf: 0 to 10 scale
Procedure, shortened: as §1

rice = type: in vivo, Oryza sativa; settings: for Plant response rating, Rice: 0 to 10 scale
Procedure, shortened: as §1

cotton = type: in vivo, Gossypium hirsutum; settings: for Plant response rating, Cotton: 0 to 10 scale
Procedure, shortened: as §1

barnyardgrass = type: in vivo, Echinochloa crus-galli; settings: for Plant response rating, Barnyardgrass: 0 to 10 scale
Procedure, shortened: as §1

giant foxtail = type: in vivo, Setaria faberii; settings: for Plant response rating, Giant foxtail: 0 to 10 scale
Procedure, shortened: as §1

corn = type: in vivo, Zea mays; settings: for Plant response rating, Corn: 0 to 10 scale
Procedure, shortened: as §1

wild oat = type: in vivo, Avena fatua; settings: for Plant response rating, Wild oat: 0 to 10 scale
Procedure, shortened: as §1

bedstraw = type: in vivo, Galium aparine; settings: for Plant response rating, Bedstraw: 0 to 10 scale
Procedure, shortened: as §1

cocklebur = type: in vivo, Xanthium pensylvanicum; settings: for Plant response rating, Cocklebur: 0 to 10 scale
Procedure, shortened: as §1

rape = type: in vivo, Brassica napus; settings: for Plant response rating, Rape: 0 to 10 scale
Procedure, shortened: as §1

purple nutsedge = type: in vivo, Cyperus rotundus; settings: for Plant response rating, Nutsedge: 0 to 10 scale
Procedure, shortened: as §1

lambsquarters = type: in vivo, Chenopodium album; settings: for Plant response rating, Lambsquarter: 0 to 10 scale
Procedure, shortened: as §1

soybean = type: in vivo, Glycine max; settings: for Plant response rating, Soybean: 0 to 10 scale
Procedure, shortened: as §1

blackgrass = type: in vivo, Alopecurus myosuroides; settings: for Plant response rating, Blackgrass: 0 to 10 scale
Procedure, shortened: as §1

sorghum = type: in vivo, Sorghum bicolor; settings: for Plant response rating, Sorghum: 0 to 10 scale
Procedure, shortened: as §1

wheat = type: in vivo, Triticum aestivum; settings: for Plant response rating, Wheat: 0 to 10 scale
Procedure, shortened: as §1

crabgrass = type: in vivo, Digitaria spp.; settings: for Plant response rating, Crabgrass: 0 to 10 scale
Procedure, shortened: as §1

barley = type: in vivo, Hordeum vulgare; settings: for Plant response rating, Barley: 0 to 10 scale
Procedure, shortened: as §1

CC(C)(C)C(=O)COc1cc(-c2nn3c(c2Cl)CCCC3)c(Cl)cc1Cl [Compound 77]
Plant response rating, Wild buckwheat (wild buckwheat; POSTEMERGENCE, Rate 50 g/ha): 10
Plant response rating, Wild buckwheat (wild buckwheat; PREEMERGENCE, Rate 50 g/ha): 8
Plant response rating (0 to 10 scale), Wild buckwheat (wild buckwheat; PREEMERGENCE, Rate 200 g/ha): 9
Plant response rating, Wild buckwheat (wild buckwheat; Rate 200 g/ha, POSTEMERGENCE): 10
Plant response rating, Morningglory (morningglory; POSTEMERGENCE, Rate 50 g/ha): 8
Plant response rating, Morningglory (morningglory; PREEMERGENCE, Rate 50 g/ha): 0
Plant response rating (0 to 10 scale), Morningglory (morningglory; PREEMERGENCE, Rate 200 g/ha): 0
Plant response rating, Morningglory (morningglory; Rate 200 g/ha, POSTEMERGENCE): 9
Plant response rating, Sugar beet (sugar beet; POSTEMERGENCE, Rate 50 g/ha): 10
Plant response rating, Sugar beet (sugar beet; PREEMERGENCE, Rate 50 g/ha): 3
Plant response rating (0 to 10 scale), Sugar beet (sugar beet; PREEMERGENCE, Rate 200 g/ha): 3
Plant response rating, Sugar beet (sugar beet; Rate 200 g/ha, POSTEMERGENCE): 10
Plant response rating, Cheatgrass (cheatgrass; POSTEMERGENCE, Rate 50 g/ha): 2
Plant response rating, Cheatgrass (cheatgrass; PREEMERGENCE, Rate 50 g/ha): 3
Plant response rating (0 to 10 scale), Cheatgrass (cheatgrass; PREEMERGENCE, Rate 200 g/ha): 5
Plant response rating, Cheatgrass (cheatgrass; Rate 200 g/ha, POSTEMERGENCE): 3
Plant response rating, Chickweed (chickweed; POSTEMERGENCE, Rate 50 g/ha): 2
Plant response rating, Chickweed (chickweed; PREEMERGENCE, Rate 50 g/ha): 0
Plant response rating (0 to 10 scale), Chickweed (chickweed; PREEMERGENCE, Rate 200 g/ha): 1
Plant response rating, Chickweed (chickweed; Rate 200 g/ha, POSTEMERGENCE): 3
Plant response rating, Velvetleaf (velvetleaf; POSTEMERGENCE, Rate 50 g/ha): 10
Plant response rating, Velvetleaf (velvetleaf; PREEMERGENCE, Rate 50 g/ha): 3
Plant response rating (0 to 10 scale), Velvetleaf (velvetleaf; PREEMERGENCE, Rate 200 g/ha): 7
Plant response rating, Velvetleaf (velvetleaf; Rate 200 g/ha, POSTEMERGENCE): 10
Plant response rating, Rice (rice; POSTEMERGENCE, Rate 50 g/ha): 4
Plant response rating, Rice (rice; PREEMERGENCE, Rate 50 g/ha): 0
Plant response rating (0 to 10 scale), Rice (rice; PREEMERGENCE, Rate 200 g/ha): 0
Plant response rating, Rice (rice; Rate 200 g/ha, POSTEMERGENCE): 6
Plant response rating, Cotton (cotton; POSTEMERGENCE, Rate 50 g/ha): 10
Plant response rating, Cotton (cotton; PREEMERGENCE, Rate 50 g/ha): 0
Plant response rating (0 to 10 scale), Cotton (cotton; PREEMERGENCE, Rate 200 g/ha): 0
Plant response rating, Cotton (cotton; Rate 200 g/ha, POSTEMERGENCE): 10
Plant response rating, Barnyardgrass (barnyardgrass; POSTEMERGENCE, Rate 50 g/ha): 4
Plant response rating, Barnyardgrass (barnyardgrass; PREEMERGENCE, Rate 50 g/ha): 0
Plant response rating (0 to 10 scale), Barnyardgrass (barnyardgrass; PREEMERGENCE, Rate 200 g/ha): 3
Plant response rating, Barnyardgrass (barnyardgrass; Rate 200 g/ha, POSTEMERGENCE): 8
Plant response rating, Giant foxtail (giant foxtail; POSTEMERGENCE, Rate 50 g/ha): 5
Plant response rating, Giant foxtail (giant foxtail; PREEMERGENCE, Rate 50 g/ha): 2
Plant response rating (0 to 10 scale), Giant foxtail (giant foxtail; PREEMERGENCE, Rate 200 g/ha): 2
Plant response rating, Giant foxtail (giant foxtail; Rate 200 g/ha, POSTEMERGENCE): 6
Plant response rating, Corn (corn; POSTEMERGENCE, Rate 50 g/ha): 3
Plant response rating, Corn (corn; PREEMERGENCE, Rate 50 g/ha): 0
Plant response rating (0 to 10 scale), Corn (corn; PREEMERGENCE, Rate 200 g/ha): 0
Plant response rating, Corn (corn; Rate 200 g/ha, POSTEMERGENCE): 3
Plant response rating, Wild oat (wild oat; POSTEMERGENCE, Rate 50 g/ha): 1
Plant response rating, Wild oat (wild oat; PREEMERGENCE, Rate 50 g/ha): 0
Plant response rating (0 to 10 scale), Wild oat (wild oat; PREEMERGENCE, Rate 200 g/ha): 0
Plant response rating, Wild oat (wild oat; Rate 200 g/ha, POSTEMERGENCE): 3
Plant response rating, Bedstraw (bedstraw; POSTEMERGENCE, Rate 50 g/ha): 4
Plant response rating, Bedstraw (bedstraw; PREEMERGENCE, Rate 50 g/ha): 3
Plant response rating (0 to 10 scale), Bedstraw (bedstraw; PREEMERGENCE, Rate 200 g/ha): 10
Plant response rating, Bedstraw (bedstraw; Rate 200 g/ha, POSTEMERGENCE): 5
Plant response rating, Cocklebur (cocklebur; POSTEMERGENCE, Rate 50 g/ha): 7
Plant response rating, Cocklebur (cocklebur; PREEMERGENCE, Rate 50 g/ha): 0
Plant response rating (0 to 10 scale), Cocklebur (cocklebur; PREEMERGENCE, Rate 200 g/ha): 1
Plant response rating, Cocklebur (cocklebur; Rate 200 g/ha, POSTEMERGENCE): 9
Plant response rating, Rape (rape; POSTEMERGENCE, Rate 50 g/ha): 6
Plant response rating, Rape (rape; PREEMERGENCE, Rate 50 g/ha): 0
Plant response rating (0 to 10 scale), Rape (rape; PREEMERGENCE, Rate 200 g/ha): 6
Plant response rating, Rape (rape; Rate 200 g/ha, POSTEMERGENCE): 7
Plant response rating, Nutsedge (purple nutsedge; POSTEMERGENCE, Rate 50 g/ha): 2
Plant response rating, Nutsedge (purple nutsedge; PREEMERGENCE, Rate 50 g/ha): 0
Plant response rating (0 to 10 scale), Nutsedge (purple nutsedge; PREEMERGENCE, Rate 200 g/ha): 0
Plant response rating, Nutsedge (purple nutsedge; Rate 200 g/ha, POSTEMERGENCE): 2
Plant response rating, Lambsquarter (lambsquarters; POSTEMERGENCE, Rate 50 g/ha): 10
Plant response rating, Lambsquarter (lambsquarters; PREEMERGENCE, Rate 50 g/ha): 10
Plant response rating (0 to 10 scale), Lambsquarter (lambsquarters; PREEMERGENCE, Rate 200 g/ha): 10
Plant response rating, Lambsquarter (lambsquarters; Rate 200 g/ha, POSTEMERGENCE): 10
Plant response rating, Soybean (soybean; POSTEMERGENCE, Rate 50 g/ha): 5
Plant response rating, Soybean (soybean; PREEMERGENCE, Rate 50 g/ha): 0
Plant response rating (0 to 10 scale), Soybean (soybean; PREEMERGENCE, Rate 200 g/ha): 0
Plant response rating, Soybean (soybean; Rate 200 g/ha, POSTEMERGENCE): 7
Plant response rating, Blackgrass (blackgrass; POSTEMERGENCE, Rate 50 g/ha): 2
Plant response rating, Blackgrass (blackgrass; PREEMERGENCE, Rate 50 g/ha): 2
Plant response rating (0 to 10 scale), Blackgrass (blackgrass; PREEMERGENCE, Rate 200 g/ha): 3
Plant response rating, Blackgrass (blackgrass; Rate 200 g/ha, POSTEMERGENCE): 3
Plant response rating, Sorghum (sorghum; POSTEMERGENCE, Rate 50 g/ha): 5
Plant response rating, Sorghum (sorghum; PREEMERGENCE, Rate 50 g/ha): 0
Plant response rating (0 to 10 scale), Sorghum (sorghum; PREEMERGENCE, Rate 200 g/ha): 0
Plant response rating, Sorghum (sorghum; Rate 200 g/ha, POSTEMERGENCE): 5
Plant response rating, Wheat (wheat; POSTEMERGENCE, Rate 50 g/ha): 2
Plant response rating, Wheat (wheat; PREEMERGENCE, Rate 50 g/ha): 0
Plant response rating (0 to 10 scale), Wheat (wheat; PREEMERGENCE, Rate 200 g/ha): 0
Plant response rating, Wheat (wheat; Rate 200 g/ha, POSTEMERGENCE): 5
Plant response rating, Crabgrass (crabgrass; POSTEMERGENCE, Rate 50 g/ha): 5
Plant response rating, Crabgrass (crabgrass; PREEMERGENCE, Rate 50 g/ha): 2
Plant response rating (0 to 10 scale), Crabgrass (crabgrass; PREEMERGENCE, Rate 200 g/ha): 3
Plant response rating, Crabgrass (crabgrass; Rate 200 g/ha, POSTEMERGENCE): 6
Plant response rating, Barley (barley; POSTEMERGENCE, Rate 50 g/ha): 2
Plant response rating, Barley (barley; PREEMERGENCE, Rate 50 g/ha): 0
Plant response rating (0 to 10 scale), Barley (barley; PREEMERGENCE, Rate 200 g/ha): 0
Plant response rating, Barley (barley; Rate 200 g/ha, POSTEMERGENCE): 3
